# Experimental data as given in patent US9096632B2, “Modulator of activity of adenylate cyclase” (Public University Corporation Yokohama City University, priority 2010, dated 2015).
# Experiments:
# [1] = molecular target: T1, adenylyl cyclase activity in the heart; experiment: Membrane adenylyl cyclase assay, WT heart membrane, forskolin-stimulated; format: biochemical, mouse; settings: WT; estimated from 10, 50 and 100 μM; 50 μM forskolin
# T1 construct: IC50 on adenylyl cyclase activity in the heart; other: WT; estimated from 10, 50 and 100 μM
# Excerpt: FIG. 3 Inhibitory effects of individual vidarabine derivatives on adenylyl cyclase activity in the striatum, heart and lung. With adenylyl cyclase activity in the presence of […] but in the absence of inhibitors being taken as 100, the reductions in adenylyl cyclase activity upon treatment with various inhibitors at the concentrations indicated on the horizontal axis are shown (n=4, means±S.E.).
# <Membrane Adenylyl Cyclase Assay>
# Striatal, cardiac and pulmonary tissues were removed from WT (C57BL) (Charles River Laboratories Japan, Inc.) and AC5KO (Circ. Res. 93: 364-371, 2003), both of which were 12-15 weeks of age after birth, and individual membrane protein fractions were prepared therefrom. The resultant membrane preparations were incubated with a reaction mixture (20 mM HEPES, pH 8, 5 mM MgCl2, 0.5 mM EDTA, pH 8, 0.1 mM ATP, 1 mM phospho creatine, 8 U/mL creatine phosphor kinase, 200 μM IBMX) at 30° C. in the presence of forskolin (an activator of adenylyl cyclase) (50 μM, Sigma Cat. No. F6886) and various compounds, to thereby allow production of cAMP. In this assay, striatum- or lung-derived membrane preparations were used in an amount of 1 μg, and heart-derived membrane preparation was used in an amount of 2 μg. 15 minutes (striatum and lung) or 30 minutes (heart) after its start, the reaction was terminated by adding trichloroacetate (TCA) solution to give a final concentration of 5%. Then, the protein was precipitated by centrifugation (13,500×g, 10 min).
# In both membrane adenylyl cyclase assay and cAMP accumulation assay, the amount of cAMP contained in TCA solution was determined by radioimmunoassay using […].
# [2] = test system: cardiac function (LVEF) of isoproterenol-loaded mice; experiment: Chronic catecholamine loading experiment (isoproterenol heart failure model); format: in vivo, mouse; settings: 15 mg/kg/day for 7 days, osmotic mini-pump, with isoproterenol 60 mg/kg/day; C57BL/6N
# Procedure: FIG. 9 Prophylactic effects on heart failure. Isoproterenol alone (60 mg/kg/day for 7 days) was administered to wild-type mice (C57BL/6N) for one week with an osmotic mini-pump (Alzet2001) (ISO). Other WT received isoproterenol with vidarabine, V2E, V3E or V5E (15 mg/kg/day for 7 days).
# <Chronic Catecholamine Loading Experiment>
# An osmotic mini-pump filled with isoproterenol was hypodermically implanted in mice, and isoproterenol was administered for 1 week continuously in a sustained-release manner (60 mg/kg). The cardiac function of mice (EF, ejection fraction) was measured by cardiac ultrasonography, and values before and after isoproterenol administration were compared. It is generally known that when isoproterenol is administered to mice with a mini-pump, their cardiac function (EF) decreases (i.e., they manifest heart failure).
# Isoproterenol alone (60 mg/kg/day for 7 days) was administered to WT (C57BL/6N) for 1 week with an osmotic mini-pump (Alzet 2001). Other WT received isoproterenol and, at the same time, vidarabine, V2E, V3E or V5E (15 mg/kg/day for 7 days).
# [3] = Toxicity test (blood BUN, creatinine, GPT, GOT); format: in vivo, mouse; settings: 15 mg/kg/day for 7 days, osmotic mini-pump
# Procedure: FIG. 11 Toxicity test. Vidarabine, V2E, V3E and V5E were administered individually with an osmotic mini-pump (15 mg/kg/day for 7 days). Then, blood samples were taken and subjected to BUN, creatinine, GPT and GOT measurements. The results were compared with the results from a control group.
# Vidarabine, V2E, V3E and V5E were administered individually to WT (C57BL/6N; Nippon SLC) with an osmotic mini-pump (15 mg/kg/day for 7 days). Then, blood samples were taken and subjected to BUN, creatinine, OPT and GOT measurements. The results were compared with the results from control group.
# [4] = test system: pacing-induced atrial fibrillation; experiment: Antiarrhythmic action: pacing-induced transient atrial fibrillation; format: in vivo, mouse; settings: vidarabine 15 mg/kg/day, V2E, V3E, V5E 19.8 mg/kg/day, osmotic mini-pump; vs DMSO alone
# Procedure: FIG. 14 Antiarrhythmic (atrial fibrillation inhibition) action. To healthy wild type mice (C57BL/6N), vidarabine (15 mg/kg/day), V2E, V3E or V5E (19.8 mg/kg/day) (all of which are dissolved in DMSO) or DMSO alone was administered with an osmotic mini-pump (Alzet 2001). Subsequently, voltage stimuli of 2.5 mA were applied to the mice for 60 seconds at intervals of 30 milliseconds with a transesophageal catheter (atrial tachypacing; Circ Res 97, 62-69, 2005) to induce transient atrial fibrillation. The duration of atrial fibration until the induced transient atrial fibrillation converted to a normal sinus rhythm was measured (n=4-8, means±SE).
# After mice were inhalationally anesthetized with isoflurane, an electrode catheter (Millar: Model EPR800; size 1.1 F; length 4.5 cm) connected to an electrocardiogram amp for the purpose of recording intracardiac electrocardiogram was slowly inserted through the oral cavity into the esophagus, and fixed at a site where maximum P wave was recorded. The thus fixed electrode catheter was connected to an electrostimulator carefully enough to avoid any movement of its position. Thereafter, body surface electrogram was recorded by II lead. Subsequently, voltage stimuli of 2.5 mA were applied to mice for 60 seconds at intervals of 30 milliseconds to thereby induce transient atrial fibrillation. The time period during which the following phenomena can be confirmed from body surface electrogram was regarded as the duration of atrial P wave disappears from the baseline and the R-R intervals are not regular but produce arrhythmic pulse.
# To healthy WT (C57BL/6N), each of vidarabine (15 mg/kg/day), V2E, V3E and V5E (19.8 mg/kg/day) (all of which were dissolved in DMSO) or DMSO alone was administered with an osmotic mini-pump (Alzet 2001). Subsequently, atrial fibrillation was induced under the above-described conditions, and the duration of atrial fibrillation until the induced atrial fibrillation converted to a normal sinus rhythm was measured (FIG. 14). This experiment was completed after confirming that the normal sinus rhythm was lasting for at least 5 minutes and that there was no recurrence of atrial fibrillation. For information, the maximum dose of vidarabine approved for use in the treatment of herpes in humans is 15 mg/kg/day for 10 days.
smiles,measurement,setting,value
"CN(C)CC(=O)OC1C(O)C(CO)OC1n1cnc2c(N)ncnc21 (stereo not shown) [V2E, 2-O—(N,N-Dimethylglycyl)Vidarabine]",IC50,[1],17.8 µM
same,inhibition of the isoproterenol-induced decrease of cardiac function (LVEF),[2],comparable to that of vidarabine
same,BUN compared with control group,[3],No significant increase
same,GOT compared with control group,[3],No significant increase
same,OPT compared with control group,[3],No significant increase
same,creatinine compared with control group,[3],No significant increase
same,time for pacing-induced atrial fibrillation to convert to a normal sinus rhythm,[4],significantly shortened
"CN(C)CC(=O)OC1C(CO)OC(n2cnc3c(N)ncnc32)C1O (stereo not shown) [V3E, 3-O—(N,N-Dimethylglycyl)Vidarabine]",IC50,[1],19.9 µM
same,inhibition of the isoproterenol-induced decrease of cardiac function (LVEF),[2],comparable to that of vidarabine
same,BUN compared with control group,[3],No significant increase
same,GOT compared with control group,[3],No significant increase
same,OPT compared with control group,[3],No significant increase
same,creatinine compared with control group,[3],No significant increase
same,time for pacing-induced atrial fibrillation to convert to a normal sinus rhythm,[4],significantly shortened
"CN(C)CC(=O)OCC1OC(n2cnc3c(N)ncnc32)C(O)C1O (stereo not shown) [V5E, 5-O—(N,N-Dimethylglycyl)Vidarabine]",IC50,[1],42.9 µM
same,inhibition of the isoproterenol-induced decrease of cardiac function (LVEF),[2],comparable to that of vidarabine
same,BUN compared with control group,[3],No significant increase
same,GOT compared with control group,[3],No significant increase
same,OPT compared with control group,[3],No significant increase
same,creatinine compared with control group,[3],No significant increase
same,time for pacing-induced atrial fibrillation to convert to a normal sinus rhythm,[4],significantly shortened
"Nc1ncnc2c1ncn2[C@@H]1O[C@H](CO)[C@@H](O)[C@@H]1O [vidarabine, reference compound]",IC50,[1],7.7 µM
same,inhibition of the isoproterenol-induced decrease of cardiac function (LVEF),[2],significantly inhibited
same,BUN compared with control group,[3],No significant increase
same,GOT compared with control group,[3],No significant increase
same,OPT compared with control group,[3],No significant increase
same,creatinine compared with control group,[3],No significant increase
same,time for pacing-induced atrial fibrillation to convert to a normal sinus rhythm,[4],significantly shortened
